We go through seven sequences from US20100184699A1, “Peptide Derived From Prostate-Related Protein As Cancer Vaccine Candidate For Prostate Cancer Patient Who Is Positive For Hla-A3 Super-Type Allele Molecule” (priority 2005, published 2010).

For test [1], the system named is C1R-A11, -A31 or -A33 cells pulsed with corresponding peptide. Nature of the test: Induction of peptide-specific CTLs from PBMCs (IFN-γ ELISA). The conditions noted are these: for IFN-γ production, HIV peptide background subtracted: day 15, significant values only. It counts as cell-based, human. (In an ELISA, binding on a coated surface is turned into a signal by an enzyme label.)

Test [2] deals with peptide-specific IgG in plasma of prostate cancer patients and healthy donors. As to the kind of experiment: Detection of peptide-specific IgG in plasma by ELISA. It counts as binding, human. The conditions noted are these: for IgG reactive to peptide in plasma: 1:100-diluted plasma; for frequency of detection of peptide-reactive IgG: plasma of prostate cancer patients, compared within PSA, PAP or PSMA peptides.

[3] abbreviates: Prostate cancer patient 10, A11.
Setting [4] is: Prostate cancer patient 12, A11.
Where [5] appears, read: Prostate cancer patient 17, A33.
The mark [6] stands for this setting: Prostate cancer patient 19, A33.
Setting [7] is: Prostate cancer patient 20, A33.

Where “and” joins values, the source holds several entries; their conditions need not be identical. Identical values can stand only once. Like-named read-outs stand apart in the source and are kept apart here.

EIASKFSER [PSMA 641-649]: the “Total (positive / tested)” value in test [1] is 1/13 and 2/9. Moreover, the “IgG reactive to peptide in plasma” value is listed as “+ (IgG reactive to a corresponding peptide was judged to be positive when a difference of the optical density (OD) in a 1:100-diluted plasma was more than 100)” in test [2] (Healthy donor 9, A11); “+ (IgG reactive to a corresponding peptide was judged to be positive when a difference of the optical density (OD) in a 1:100-diluted plasma was more than 100)” in test [2] (Prostate cancer patient 4, A31); “+ (IgG reactive to a corresponding peptide was judged to be positive when a difference of the optical density (OD) in a 1:100-diluted plasma was more than 100)” in test [2] (Prostate cancer patient 5, A31); “+ (IgG reactive to a corresponding peptide was judged to be positive when a difference of the optical density (OD) in a 1:100-diluted plasma was more than 100)” in test [2] (Prostate cancer patient 6, A31); “+ (IgG reactive to a corresponding peptide was judged to be positive when a difference of the optical density (OD) in a 1:100-diluted plasma was more than 100)” in test [2] (Prostate cancer patient 8, A11); “+ (IgG reactive to a corresponding peptide was judged to be positive when a difference of the optical density (OD) in a 1:100-diluted plasma was more than 100)” in test [2] (Prostate cancer patient 9, A11). Besides, the “IgG reactive to peptide in plasma” value in test [2] (setting [3]) is on record as “+ (IgG reactive to a corresponding peptide was judged to be positive when a difference of the optical density (OD) in a 1:100-diluted plasma was more than 100)”; in test [2] (setting [4]), “+ (IgG reactive to a corresponding peptide was judged to be positive when a difference of the optical density (OD) in a 1:100-diluted plasma was more than 100)”; in test [2] (Prostate cancer patient 13, A11), “+ (IgG reactive to a corresponding peptide was judged to be positive when a difference of the optical density (OD) in a 1:100-diluted plasma was more than 100)”; in test [2] (Prostate cancer patient 14, A33), “+ (IgG reactive to a corresponding peptide was judged to be positive when a difference of the optical density (OD) in a 1:100-diluted plasma was more than 100)”; in test [2] (setting [5]), “+ (IgG reactive to a corresponding peptide was judged to be positive when a difference of the optical density (OD) in a 1:100-diluted plasma was more than 100)”; in test [2] (Prostate cancer patient 18, A33), “+ (IgG reactive to a corresponding peptide was judged to be positive when a difference of the optical density (OD) in a 1:100-diluted plasma was more than 100)”. Moreover, the “IgG reactive to peptide in plasma” value in test [2] (setting [6]) and in test [2] (setting [7]) was “+ (IgG reactive to a corresponding peptide was judged to be positive when a difference of the optical density (OD) in a 1:100-diluted plasma was more than 100)” in each case. The “IgG reactive to peptide in plasma, Total (positive/tested)” value (from here on “IgG reactive … (positive/tested)”) in test [2] (Healthy donors) was 1/9; in test [2] (Prostate cancer patients), 13/20. Besides, the “frequency of detection of peptide-reactive IgG” value (shortened to “frequency”) in test [2] was “more frequently”.
As to “LLGPGRPYR (TRP2-derived peptide) [reference compound]”, the “IFN-γ production, HIV peptide background subtracted” value amounted to 143 pg/mL in test [1] (healthy donor 1, A31); 180 pg/mL in test [1] (healthy donor 4, A31); 90 pg/mL in test [1] (healthy donor 6, A33); 182 pg/mL in test [1] (healthy donor 9, A11); 207 pg/mL in test [1] (healthy donor 10, A11); 94 pg/mL in test [1] (healthy donor 14, A11). In addition, the “IFN-γ production, HIV peptide background subtracted” value in test [1] (prostate cancer patient 9, A11) is 155 pg/mL; in test [1] (prostate cancer patient 15, A33), 292 pg/mL; in test [1] (prostate cancer patient 17, A33), 1093 pg/mL; in test [1] (prostate cancer patient 19, A33) it was 115 pg/mL; in test [1] (prostate cancer patient 22, A31), 115 pg/mL. Also, the “Total (positive / tested)” value is 6/9 in test [1] (healthy donors) and 5/13 in test [1] (prostate cancer patients).
On to “QPWQVLVASR (PSA 36-45) [PSA-derived peptide]”, for which the “Total (positive / tested)” value in test [1] is 1/13 and 1/9. Also, the “IgG reactive to peptide in plasma” value is “+ (IgG reactive to a corresponding peptide was judged to be positive when a difference of the optical density (OD) in a 1:100-diluted plasma was more than 100)” in test [2] (Healthy donor 4, A31) and “+ (IgG reactive to a corresponding peptide was judged to be positive when a difference of the optical density (OD) in a 1:100-diluted plasma was more than 100)” in test [2] (Healthy donor 12, A31). The “IgG reactive … (positive/tested)” value is listed as 2/8 in test [2] (Healthy donors) and 0/20 in test [2] (Prostate cancer patients). Besides, the “frequency” value in test [2] was “less frequently”.
Take “SLLKNRFLR (PSA 104-112) [PSA-derived peptide]”: in test [1], the “Total (positive / tested)” value was 3/13 and 1/9. Moreover, the “IgG reactive … (positive/tested)” value in test [2] (Healthy donors) is 0/9; in test [2] (Prostate cancer patients), 5/20. Further, the “IgG reactive to peptide in plasma” value in test [2] (Prostate cancer patient 3, A31) is listed as “+ (IgG reactive to a corresponding peptide was judged to be positive when a difference of the optical density (OD) in a 1:100-diluted plasma was more than 100)”; in test [2] (Prostate cancer patient 8, A11), “+ (IgG reactive to a corresponding peptide was judged to be positive when a difference of the optical density (OD) in a 1:100-diluted plasma was more than 100)”; in test [2] (Prostate cancer patient 9, A11), “+ (IgG reactive to a corresponding peptide was judged to be positive when a difference of the optical density (OD) in a 1:100-diluted plasma was more than 100)”; in test [2] (setting [3]), “+ (IgG reactive to a corresponding peptide was judged to be positive when a difference of the optical density (OD) in a 1:100-diluted plasma was more than 100)”; in test [2] (Prostate cancer patient 16, A33) it was “+ (IgG reactive to a corresponding peptide was judged to be positive when a difference of the optical density (OD) in a 1:100-diluted plasma was more than 100)”; in test [2] (setting [6]), “+ (IgG reactive to a corresponding peptide was judged to be positive when a difference of the optical density (OD) in a 1:100-diluted plasma was more than 100)”. In test [2], the “frequency” value is “more frequently”.
As to “NVKNLYEKVK (Flu-derived peptide) [reference compound]”, the “Total (positive / tested)” value in test [1] was 8/13 and 5/9.
Take “FIDPLGLPDR (PSMA 675-684) [PSMA-derived peptide]”: the figures for the “IgG reactive … (positive/tested)” value in test [2] (Healthy donors) and in test [2] (Prostate cancer patients) were 0/9 and 10/20, respectively. In addition, the “IgG reactive to peptide in plasma” value in test [2] (Prostate cancer patient 2, A31) is reported as “+ (IgG reactive to a corresponding peptide was judged to be positive when a difference of the optical density (OD) in a 1:100-diluted plasma was more than 100)”; in test [2] (Prostate cancer patient 4, A31) it was “+ (IgG reactive to a corresponding peptide was judged to be positive when a difference of the optical density (OD) in a 1:100-diluted plasma was more than 100)”; in test [2] (Prostate cancer patient 5, A31), “+ (IgG reactive to a corresponding peptide was judged to be positive when a difference of the optical density (OD) in a 1:100-diluted plasma was more than 100)”; in test [2] (Prostate cancer patient 6, A31), “+ (IgG reactive to a corresponding peptide was judged to be positive when a difference of the optical density (OD) in a 1:100-diluted plasma was more than 100)”; in test [2] (Prostate cancer patient 8, A11), “+ (IgG reactive to a corresponding peptide was judged to be positive when a difference of the optical density (OD) in a 1:100-diluted plasma was more than 100)”; in test [2] (Prostate cancer patient 9, A11), “+ (IgG reactive to a corresponding peptide was judged to be positive when a difference of the optical density (OD) in a 1:100-diluted plasma was more than 100)”. For the same sequence, the “IgG reactive to peptide in plasma” value in test [2] (setting [4]), in test [2] (setting [5]), in test [2] (setting [6]) and in test [2] (setting [7]) was “+ (IgG reactive to a corresponding peptide was judged to be positive when a difference of the optical density (OD) in a 1:100-diluted plasma was more than 100)” throughout.
WVLTAAHCIR [PSA 59-68]: the “IgG reactive … (positive/tested)” value is given as 0/9 in test [2] (Healthy donors) and 0/20 in test [2] (Prostate cancer patients).
